“Also recorded” adds a separate entry of the source.
Experiments:
[1] = molecular target: T1, rat Mas receptor (Rattus norvegicus, UniProt P12526); test: HTRF IP1 assay, HEK293 cells expressing rat Mas receptor; assay type: cell-based
T1 construct: expressed in transfected cells; host or cells: HEK293 (ATCC CRL-1573)
T1 sequence (P12526 1-324): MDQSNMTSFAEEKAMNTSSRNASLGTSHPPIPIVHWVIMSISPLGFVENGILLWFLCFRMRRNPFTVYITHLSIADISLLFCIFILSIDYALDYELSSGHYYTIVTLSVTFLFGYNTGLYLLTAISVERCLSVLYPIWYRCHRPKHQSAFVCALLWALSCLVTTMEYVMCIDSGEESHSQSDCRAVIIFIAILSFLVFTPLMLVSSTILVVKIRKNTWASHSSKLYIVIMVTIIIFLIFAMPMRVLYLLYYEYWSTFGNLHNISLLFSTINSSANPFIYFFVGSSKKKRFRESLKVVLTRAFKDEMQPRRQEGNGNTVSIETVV
From the text: (§1) Human and rat Mas receptors were either transiently or stably expressed in HEK293 cells. For transient transfections, human or rat Mas in pHM6 vector were transfected into HEK293 cells using Lipofectamine® (Invitrogen #18324-012). HEK293 cells transfected with empty pHM6 vector were used as a control. For generation of stable cell lines, cDNA expression plasmids encoding human or rat Mas genes and the neo^r gene were transfected into HEK293 cells (ATCC# CRL-1573) using Lipofectamine® (Invitrogen) according to the manufacturer's instructions. Stable receptor expressing pools were then generated over 3 weeks by standard techniques in the presence of 500 μg/mL Geneticin® (Gibco). Individual receptor stable pools were dilution cloned using standard techniques and clones were comparatively evaluated in inositol phosphate accumulation assays. Preferred clones were banked and cultured as needed. HEK293 cells were used as controls. The 384 well IP-One HTRF® Assay (Cisbio #62P1APEJ) was performed as described by the manufacturer's protocol. Cells were plated in at 100,000 cells per well in 15 μL DMEM (Gibco #11960) and incubated in a CO2 incubator at 37° C. for 2 h. Five μL of compounds diluted in 2× stimulation buffer plus 0.4% BSA (Sigma (#A3059) were added to each well and serial diluted IP1 standards (Cisbio #62IP1CDA) were also added to corresponding wells at this step. After the cells were incubated for 4 h in a CO2 incubator at 37° C., d2-labeled IP1 and cryptate-labeled anti-IP1 monoclonal antibody diluted in lysis buffer were added sequentially in 10 μL per well and the assay plates were kept in the dark at room temperature overnight. Ratiometric measurements of fluorescence emission at 665 nm and 620 nm were obtained using a Pherastar fluorometer (BMG Labtech). IP1 levels in each well were calculated according to the standard curves on each plate. IC50 values were obtained by fitting data to a nonlinear curve-fitting program (GraphPad Software, Inc., La Jolla Calif.).

[2] = molecular target: T2, human Mas receptor (Homo sapiens, UniProt P04201); test: HTRF IP1 assay, HEK293 cells expressing human Mas receptor; assay type: cell-based
T2 construct: expressed in transfected cells; host or cells: HEK293 (ATCC CRL-1573)
T2 sequence (P04201 1-325): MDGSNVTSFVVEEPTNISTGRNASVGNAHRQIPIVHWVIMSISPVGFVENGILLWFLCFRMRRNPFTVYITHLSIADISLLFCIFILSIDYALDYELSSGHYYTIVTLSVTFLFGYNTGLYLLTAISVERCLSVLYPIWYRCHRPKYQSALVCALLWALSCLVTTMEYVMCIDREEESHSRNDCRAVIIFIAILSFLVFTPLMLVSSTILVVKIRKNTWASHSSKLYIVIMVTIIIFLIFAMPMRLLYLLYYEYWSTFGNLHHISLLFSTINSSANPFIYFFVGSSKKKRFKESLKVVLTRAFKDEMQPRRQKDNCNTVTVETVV
From the text: as §1

[3] = system: control HEK293 cells; test: HTRF IP1 assay in control HEK293 cells; assay type: cell-based; settings: IP assay
From the text: Human and rat Mas receptors were either transiently or stably expressed in HEK293 cells. For transient transfections, human or rat Mas in pHM6 vector were transfected into HEK293 cells using Lipofectamine® (Invitrogen #18324-012). HEK293 cells transfected with empty pHM6 vector were used as a control. For generation of stable cell lines, cDNA expression plasmids encoding human or rat Mas genes and the neo^r gene were transfected into HEK293 cells (ATCC# CRL-1573) using Lipofectamine® (Invitrogen) according to the manufacturer's instructions. Stable receptor expressing pools were then generated over 3 weeks by standard techniques in the presence of 500 μg/mL Geneticin® (Gibco). Individual receptor stable pools were dilution cloned using standard techniques and clones were comparatively evaluated in inositol phosphate accumulation assays. Preferred clones were banked and cultured as needed. HEK293 cells were used as controls. The 384 well IP-One HTRF® Assay (Cisbio #62P1APEJ) was performed as described by the manufacturer's protocol. Cells were plated in at 100,000 cells per well in 15 μL DMEM (Gibco #11960) and incubated in a CO2 incubator at 37° C. for 2 h. […] IP1 levels in each well were calculated according to the standard curves on each plate. […]

[4] = system: Male Sprague-Dawley rats; test: Coronary artery ligation model, LV area at risk and infarct size (Example 5.6); assay type: in vivo, rat; settings: 10 mg/kg i.v. bolus 10 min before ligation or 3 min before reperfusion; 30 min ischemia, 2 h reperfusion
[5] = system: isolated perfused rat hearts; test: Ex vivo coronary flow, Langendorff perfused isolated rat hearts; settings: for decrease in coronary flow induced by AR234960 (1 μM) after pretreatment: pretreatment 10 min: AR244555 5 μM or U-73122 0.5 μM
Description: Coronary flow was measured in male Mas^−/− and Mas^+/+ mice, and in male Sprague-Dawley rats using Langendorff perfused isolated hearts. Freshly isolated hearts were placed on a Langendorff apparatus (Harvard Apparatus) and perfused at a constant pressure of 80 mmHg with a modified Krebs-Henseleit buffer solution (Sigma K3753) and aerated with 95% oxygen and 5% carbon dioxide, pH 7.35-7.4. The temperature was maintained at 37° C. by surrounding the heart with a water-heated glassware chamber. Coronary flow was measured using a flow measurement system (Harvard Apparatus) which included the transit time flow meter and a flow probe built into an adaptor block located at the perfusate inflow port. Data were recorded continuously using an ISOHEART data acquisition system (Harvard Apparatus). After a 20-min equilibration period, Mas compounds were added to the perfusion buffer reservoir at the desired concentration (agonist AR234960 at 1 μM, or inverse agonist AR244555 at 5 μM) and coronary flow was recorded for 10 min
To determine the role of the Mas-Gq-PLC pathway in regulating coronary flow, the Mas inverse agonist AR244555 (5 μM) or the PLC inhibitor U-73122 (0.5 μM) was added to the perfusion buffer for 10 min and then the agonist AR234960 (1 μM) was added to the perfusion buffer. Coronary flow was recorded for another 10 min Changes in coronary flow induced by AR234960 were calculated as percentage of the coronary flow at 10 min following AR234960 treatment, relative to the coronary flow measured immediately prior to addition of AR234960. This protocol allowed for measurement of agonist mediated vasoconstrictor activity, and accounted for changes in baseline coronary flow due to inverse agonist treatment alone.
To determine whether Mas agonist-induced changes in coronary flow were endothelium-dependent, the responses in Langendorff perfused hearts were measured after chemical removal of endothelium with sodium deoxycholate. After a 20-min equilibration period, sodium deoxycholate was added to the perfusion buffer at 0.2 mg/mL for 3 min and then washed out for 10 min Mas compounds were added and coronary flow was recorded for 10 min Adenosine (1 μM), a coronary vasodilator that targets the endothelium, was used as a control to verify effective removal of endothelium.

[6] = system: isolated perfused rat hearts; test: Global ischemia-reperfusion in Langendorff perfused rat hearts (coronary flow, arrhythmias)
Description: For ischemia-reperfusion experiments, Langendorff perfused rat hearts were equilibrated for 20 min and then baseline coronary flow was recorded for 10 min Thereafter, all hearts were subjected to 30 min of global ischemia by stopping perfusate flow, followed by 30 min of reperfusion with either vehicle (0.01% DMSO), Mas agonist AR234960 (1 μM) or Mas inverse agonist AR244555 (5 μM) added to the perfusion buffer. Electrocardiography was also continuously recorded during the observation period through electrodes attached directly to the surface of the ventricles to detect cardiac arrhythmias during reperfusion.

[7] = system: Male Sprague Dawley rats; test: Carrageenan-induced inflammatory paw swelling model; assay type: in vivo, rat; settings: i.p. 30 minutes prior to λ-carrageenan; AR305352 1, 3 and 10 mg/kg; dexamethasone 2 mg/kg; 1, 2, 3, 6 and 24 hours
Description: In a blinded and randomized fashion, rats were intraperitoneally dosed with a Mas receptor inverse agonist (AR305352, N-(4-chloro-2-(4-(3,3,3-trifluoropropyl)piperazin-1-yl)phenyl)-2,6-difluorobenzamide, see Zhang, T., et. al., Am J Physiol Heart Circ Physiol 302:H299-H311, (2012)) at 1, 3 and 10 mg/kg, 20% HPCD or 2 mg/kg of dexamethasone, 30 minutes prior to injection of 100 μl of saline or 100 μg of λ-carrageenan into the left or right foot pad of anesthetized animals. The difference in footpad width was measured using a caliper at 1, 2, 3, 6 and 24 hours post-injection.

[8] = molecular target: Mas receptor; settings: Dong, et al., Cell 106:619-632 (2001); cited from earlier work

With `C=CCCN1CCC2(CC1)CN(C(=O)c1c(F)cccc1F)c1ccc(Cl)cc12` [AR244555, 1′-(but-3-enyl)-1,2-dihydro-5-chloro-1-(2,6-difluoro-benzoyl)-spiro[3H-indole-3,4′-piperidine]] as the molecule, how does the IC50 ([1]; IP assay, HEK293 cells stably expressing rat Mas, 4 h, means ± SEM, read-out: Rat IC50) read?
Its IC50 is 348 ± 67 nM.

And the “ligand activity in IP assay, rat Mas” value ([1]; Table C, line under Rat IC50)?
The value was “(inverse agonist)”.

And the IC50 ([2]; IP assay, HEK293 cells stably expressing human Mas, 4 h, means ± SEM, read-out: Human IC50)?
Its IC50 is 186 ± 11 nM.

And the “ligand activity in IP assay, human Mas” value ([2]; Table C, line under Human IC50)?
The value was “(inverse agonist)”.

And the “effects in control HEK293 cells” value [3]?
The value was “There were detected effects”.

What about the “infarct size (percentage of the area at risk) vs vehicle” value [4] of the same molecule?
The value was “reduced infarct size by about half; also recorded: cardioprotective”.

And the “coronary flow in isolated perfused rat hearts” value ([5]; AR234960 1 μM, AR244555 5 μM, 10 min)?
Its value is “modest but significant increase; also recorded: significantly increased”.

What about the “decrease in coronary flow induced by AR234960 (1 μM) after pretreatment” value [5] of the same molecule?
The value was “prevented the decrease”.

And the arrhythmias during reperfusion ([6]; 5 μM, six hearts)?
Its arrhythmias during reperfusion is “no arrhythmias were observed”.

What about the “coronary flow during reperfusion compared to vehicle treated hearts” value ([6]; 30 min global ischemia, 30 min reperfusion, AR234960 1 μM, AR244555 5 μM in perfusate during reperfusion) of the same molecule?
The value was “significantly elevated coronary flow”.

For `O=C(Nc1ccc(Cl)cc1N1CCN(CCC(F)(F)F)CC1)c1c(F)cccc1F` [AR305352, N-(4-chloro-2-(4-(3,3,3-trifluoropropyl)piperazin-1-yl)phenyl)-2,6-difluorobenzamide], which “foot-pad inflammation / paw swelling” value [7] is on record?
The value was “suppress foot-pad inflammation in a dose-dependent manner”.

Which “decrease in coronary flow induced by AR234960 (1 μM) after pretreatment” value [5] does the source give for `COc1ccc2c(c1)CC[C@@H]1[C@@H]2CC[C@]2(C)[C@@H](NCCCCCCN3C(=O)C=CC3=O)CC[C@@H]12` [Compound U-73122, 1-(6-((8R,9S,13S,14S,17S)-3-methoxy-13-methyl-7,8,9,11,12,13,14,15,16,17-decahydro-6H-cyclopenta[a]phenanthren-17-ylamino)hexyl)-1H-pyrrole-2,5-dione] here?
Its value is “blocked the decrease; also recorded: prevented the decrease”.

With `Nc1ncnc2c1ncn2[C@@H]1O[C@H](CO)[C@@H](O)[C@H]1O` [adenosine] as the molecule, how does the “compound-mediated change in coronary flow in endothelium denuded hearts” value ([5]; after sodium deoxycholate, AR234960 1 μM, adenosine 1 μM) read?
The value was “abolished”.

Which EC50 [8] does the source give for NPFF here?
Its EC50 is ~400 nM.
